Test results published in patent US5583117A (priority 1993, dated 1996).
One block for each molecule: values may come before it.

Assays:
[1] = tested on: central nervous system pathologies; settings: brain edema, cranial trauma, cerebral ischemia, chronic cerebrovascular diseases, Parkinson's disease; cited from earlier work
[2] = cited from earlier work
[3] = Bioavailability of uridine and acyl uridine derivatives in rats (plasma by HPLC); type: in vivo, male F344 rats; settings: rat, intubation into stomach, 0.28 moles/kg (printed), for at least four hours following ingestion
From the text: Silastic catheters were implanted into the right jugular veins of anesthetized male F344 rats (Retired Breeders, 450-500 grams). After three days of recovery from surgery, the animals were placed in deep cylindrical cages, and their catheters were extended with a lengthened polyvinyl tubing, so that blood samples would be withdrawn without disturbing the rats. Basal blood samples were taken and the animals were divided into four groups, each containing four rats.

[4] = in vivo, po
Method: Blood samples (0.5 ml) were withdrawn at intervals of 1, 2, 3, and 4 hours after ingestion of the compound and were processed for subsequent determination of plasma uridine content by HPLC. On a separate day, the same procedure was carried out, except that an equal molar dose (18 mg/kg--1.3 grams in a 70 kilogram subject) of uridine was ingested instead of the acyl derivative.

[5] = tested on: adrenalin-induced myocardial necrosis; settings: cited from earlier work; for mortality and myocardial function: ECG readings, biochemical findings, relative heart weight
isolated dog heart = settings: cited from earlier work
isolated rat heart = settings: cited from earlier work
skeletal muscles = settings: rat, in vivo; cited from earlier work
[6] = tested on: pyrimidine nucleoside phosphorylases; settings: rat, in vivo; cited from earlier work
brain = settings: in vivo; cited from earlier work
atrial tissue = settings: in vitro; cited from earlier work
[7] = tested on: tyrosine-alpha-ketoglutarate; settings: alone or in various combinations; cited from earlier work
[8] = tested on: isolated rat diaphragm muscle; settings: cited from earlier work
adipose tissue = settings: cited from earlier work
myocardial glycogen = settings: cited from earlier work; for myocardial glycogen: intravenous infusion
liver function = settings: in vivo; cited from earlier work
[9] = tested on: adrenalin-induced myocardial dystrophy; settings: rat, in vivo; cited from earlier work
isolated rat hearts [10] = settings: reperfusion after low-flow ischemia; cited from earlier work
isolated rat hearts [11] = settings: cited from earlier work
isolated rabbit hearts = settings: cited from earlier work
myocardium = settings: pretreatment; 2 hours after aortic stenosis; cited from earlier work
heart = settings: cited from earlier work
[12] = tested on: skeletal and cardiac muscle; settings: cited from earlier work
[13] = tested on: isolated, perfused rat liver; settings: in a single passage; cited from earlier work
hepatocytes = settings: cited from earlier work
[14] = tested on: experimentally-induced seizures; settings: intraperitoneal injection; cited from earlier work
[15] = cited from earlier work; remark: listed apart in the source

Compound: C[N+](C)(C)CCOP(=O)(O)OP(=O)([O-])OC[C@H]1O[C@@H](n2ccc(N)nc2=O)[C@H](O)[C@@H]1O [CDP-choline, cytidine-diphosphocholine]
therapeutic efficacy [1]: Therapeutic efficacy has been documented
time of breakdown to cytidine and choline ([2]; intravenous injection): ≤ 30 s
intact compound in circulation ([2]; oral): no intact CDP-choline enters the circulation
plasma cytidine and choline concentrations ([2]; oral): rise
degradation following administration ([2]; yielding cytidine, choline, and phosphate): very rapidly degraded

plasma level of uridine vs equal molar dose of uridine [4]: substantially higher
plasma uridine level [4]: exceeded 10 micromolar
time uridine levels sustained in the useful therapeutic range [4]: at least four
Compound: CC(=O)OC[C@H]1O[C@@H](n2ccc(=O)[nH]c2=O)[C@H](OC(C)=O)[C@@H]1OC(C)=O [TAU, 2',3',5'-tri-O-acetyl uridine]
plasma levels of uridine vs equimolar dose of uridine [3]: significantly higher for at least four hours

Compound: O=c1ccn([C@@H]2O[C@H](COP(=O)([O-])[O-])[C@@H](O)[C@H]2O)c(=O)[nH]1.[Na+].[Na+] [UMP, Sodium uridine monophosphate]
mortality and myocardial function [5]: reduced mortality and improved myocardial function
prophylactic effect vs potassium orotate ([5]; in vivo): more pronounced prophylactic effect
resistance to adrenalin-induced myocardial necrosis ([5]; in vivo): increase the animal's resistance

Compound: Nc1ncnc2c1ncn2[C@@H]1O[C@H](CO)[C@@H](O)[C@H]1O [adenosine]
inotropic effect (isolated dog heart): negatively inotropic

Compound: Nc1ccn([C@@H]2O[C@H](CO)[C@@H](O)[C@H]2O)c(=O)n1 [cytidine]
inotropic effect (isolated dog heart): negatively inotropic
myocardial cytosine nucleotide levels (isolated rat heart; 30 minute supply of cytidine): significantly increased
conversion of cytidine taken up into uridine nucleotides (isolated rat heart): Very little
muscular concentrations of Krebs cycle intermediates (skeletal muscles): affect the muscular concentrations of Krebs cycle intermediates
specific activity of liver homogenates [6]: increased
brain uptake (brain): not very readily taken up by the brain

Compound: O=C[C@H](O)[C@@H](O)[C@H](O)[C@H](O)CO [glucose]
contractability and extensibility of atrial tissue (atrial tissue): restored

Compound: Nc1nc2c(ncn2[C@@H]2O[C@H](CO)[C@@H](O)[C@H]2O)c(=O)[nH]1 [guanosine]
inotropic effect (isolated dog heart): positive inotropic

Compound: C[C@]12CCC(=O)C=C1CC[C@@H]1[C@@H]2[C@@H](O)C[C@@]2(C)[C@H]1CC[C@]2(O)C(=O)CO [hydrocortisone]
tyrosine-alpha-ketoglutarate activity [7]: increase

Compound: OC[C@H]1O[C@@H](n2cnc3c(O)ncnc32)[C@H](O)[C@@H]1O [inosine]
inotropic effect (isolated dog heart): positive inotropic
glucose uptake [8]: stimulate glucose uptake
lipolysis (adipose tissue): inhibited lipolysis

Compound: CC(C)NCC(O)c1ccc(O)c(O)c1 (stereo not shown) [isoproterenol]
cardiac glycogen stores, myocardial UTP and UDP-glucose levels (myocardial glycogen; isoproterenol): depleted cardiac glycogen stores and reduced myocardial UTP and UDP-glucose levels

Compound: O=C([O-])c1cc(=O)[nH]c(=O)[nH]1.[K+] [potassium orotate]
mortality and myocardial function [5]: reduced mortality and improved myocardial function
resistance to adrenalin-induced myocardial necrosis ([5]; in vivo): increase the animal's resistance

Compound: O=C[C@H](O)[C@H](O)[C@H](O)CO [ribose]
myocardial glycogen (myocardial glycogen): restoration of myocardial glycogen

Compound: Cc1cn([C@H]2C[C@H](O)[C@@H](CO)O2)c(=O)[nH]c1=O [thymidine]
inotropic effect (isolated dog heart): positive inotropic

Compound: O=c1ccn([C@@H]2O[C@H](COP(=O)(O)OP(=O)(O)O)[C@@H](O)[C@H]2O)c(=O)[nH]1 [uridine diphosphate]
improvement of liver function (liver function): improve certain aspects of liver function

Compound: O=c1ccn([C@@H]2O[C@H](COP(=O)(O)O)[C@@H](O)[C@H]2O)c(=O)[nH]1 [uridine-5'-monophosphate]
protective effect in adrenalin-induced myocardial dystrophy [9]: protective effect

Compound: O=C(O)[C@H]1O[C@H](OP(=O)(O)OP(=O)(O)OC[C@H]2O[C@@H](n3ccc(=O)[nH]c3=O)[C@H](O)[C@@H]2O)[C@H](O)[C@@H](O)[C@@H]1O [uridine-diphosphoglucuronic acid]
improvement of liver function (liver function): improve certain aspects of liver function

Compound: O=c1ccn([C@@H]2O[C@H](CO)[C@@H](O)[C@H]2O)c(=O)[nH]1 [uridine]
plasma uridine level [4]: exceeded 10 micromolar
myocardial ATP levels, total adenine nucleotide content, uridine nucleotide levels, glycogen content (isolated rat hearts [10]): induced restoration
rate of incorporation of uridine (isolated rat hearts [11]; following low-flow ischemia): increased twofold
myocardial uracil nucleotide content (isolated rat hearts [11]; perfusion): concentration-dependent elevation
myocardial glycogen (myocardial glycogen): restoration of myocardial glycogen
inotropic effect (isolated dog heart): positive inotropic
myocardial performance, glucose uptake, glycolysis, glycogen and adenine nucleotides (isolated rabbit hearts; hypoxic hearts): increased myocardial performance, glucose uptake and glycolysis and also diminished the disappearance of glycogen and adenine nucleotides
glucose uptake, glycolysis, ATP and glycogen levels, myocardial performance (isolated rabbit hearts; propranolol-treated hearts): increased glucose uptake, glycolysis, levels of ATP and glycogen, as well as myocardial performance
decrease in maximal pressure upon aortic ligation (myocardium): prevented
contractability and extensibility of atrial tissue (atrial tissue): restored
protective effect in adrenalin-induced myocardial dystrophy [9]: relatively ineffective
supporting myocardial hyperfunction (heart; in vivo): relatively ineffective
myocardial heart-pathology benefit of uridine in intact animals (heart; intact (alive and free-running) animals): no beneficial effect
difference from controls in rats developing hypertrophy of the heart (heart; rat, in vivo): no difference
glucose uptake and glycogen synthesis [12]: enhance glucose uptake and glycogen synthesis
glucose uptake [8]: stimulate glucose uptake
glycogen synthesis [8]: only uridine increased glycogen synthesis
lipolysis (adipose tissue): inhibited lipolysis
degradation of infused uridine [13]: more than 90%
incorporation of glucose into glycogen (hepatocytes): increase
tissue uridine nucleotide pools (hepatocytes): expanded
anticonvulsant effect [14]: strong protection
plasma levels of uridine ([15]; mouse, in vivo, po, 350 mg/kg): not perturbed
elevation of plasma uridine levels ([15]; mouse, in vivo, po, 3500 mg/kg): observed only after oral administration of high doses
time to return of plasma uracil to normal ([15]; oral uridine, 350 mg/kg): 4 h
